Like-named read-outs stand apart in the source and are kept apart here.
Assays:
[1] = molecular target: RAF kinases (Homo sapiens, UniProt P04049); experiment: biochemical
Experimental: (§1) Competition binding assays used herein were developed, validated and performed as described in Fabian et al., Nature Biotechnology 2005, 23, 329-336. […] The liganded beads were blocked with excess biotin and washed with blocking buffer (SeaBlock (Pierce), 1% BSA, 0.05% Tween 20, 1 mM DTT) to remove unbound ligand and to reduce non-specific binding. […] Test compounds were prepared as 100× stocks in DMSO and rapidly diluted into the aqueous environment. DMSO was added to control assays lacking a test compound. Primary screen interactions were performed in polypropylene 384-well plates in a final volume of 34 μt, while Kd determinations were performed in polystyrene 96-well plates in a final volume of 135 pt. […] The kinase concentration in the eluates was measured by quantitative PCR. Each kinase was tested individually against each compound. Kds were determined using eleven serial threefold dilutions. A selectivity score, which is a quantitative measure of selectivity of a compound against a panel of enzymes, may be calculated for a compound by dividing the number of enzymes for which a compound meets a set criteria, (for example, a binding constant of 100 nM or less), by the total number of enzymes tested. […] (Note, for those compounds tested in a larger kinase panel, as indicated by an asterisk (*) next to the S35 score, the divisor is 321 (i.e. the larger panel contains 321 distinct kinases, excluding mutant variants.)).

[2] = molecular target: RAF kinases (Homo sapiens, UniProt P15056); experiment: biochemical
Experimental: as §1

[3] = system: A375 cells; experiment: cells; details: Homo sapiens, A-375, read-out: A375 Viability EC50
Experimental: The following day, the medium was replaced with 0.5% FBS in M3 for overnight incubation. […] The cells were incubated with compound or control for 72 hours at 37° C. under 10% CO2. Following incubation, Cell Titer Blue reagent (Promega) was added to each well containing compounds or controls, and then incubated for 3 hours at 37° C. under 10% CO2. Proliferation was measured by fluorescence with excitation at 560 nm and emission at 590 nm using SoftMax Pro.

[4] = molecular target: T1, RAF kinases (Homo sapiens, UniProt P15056, V600E); details: read-out: BRAF V600E Kd; BRAF V600E
Experimental: as §1

[5] = system: MEK1 phosphorylation in the A375 human melanoma cell line; experiment: cells; details: A-375, read-out: pMEK IC50
[6] = system: 290 distinct kinases tested excluding mutant variants (321 in the larger panel)
Experimental: as §1

[7] = molecular target: T1, RAF kinases; experiment: biochemical
Experimental: as §1

[8] = no asterisk: panel of 290 distinct kinases

T1 sequence (P15056 whole entry V600E): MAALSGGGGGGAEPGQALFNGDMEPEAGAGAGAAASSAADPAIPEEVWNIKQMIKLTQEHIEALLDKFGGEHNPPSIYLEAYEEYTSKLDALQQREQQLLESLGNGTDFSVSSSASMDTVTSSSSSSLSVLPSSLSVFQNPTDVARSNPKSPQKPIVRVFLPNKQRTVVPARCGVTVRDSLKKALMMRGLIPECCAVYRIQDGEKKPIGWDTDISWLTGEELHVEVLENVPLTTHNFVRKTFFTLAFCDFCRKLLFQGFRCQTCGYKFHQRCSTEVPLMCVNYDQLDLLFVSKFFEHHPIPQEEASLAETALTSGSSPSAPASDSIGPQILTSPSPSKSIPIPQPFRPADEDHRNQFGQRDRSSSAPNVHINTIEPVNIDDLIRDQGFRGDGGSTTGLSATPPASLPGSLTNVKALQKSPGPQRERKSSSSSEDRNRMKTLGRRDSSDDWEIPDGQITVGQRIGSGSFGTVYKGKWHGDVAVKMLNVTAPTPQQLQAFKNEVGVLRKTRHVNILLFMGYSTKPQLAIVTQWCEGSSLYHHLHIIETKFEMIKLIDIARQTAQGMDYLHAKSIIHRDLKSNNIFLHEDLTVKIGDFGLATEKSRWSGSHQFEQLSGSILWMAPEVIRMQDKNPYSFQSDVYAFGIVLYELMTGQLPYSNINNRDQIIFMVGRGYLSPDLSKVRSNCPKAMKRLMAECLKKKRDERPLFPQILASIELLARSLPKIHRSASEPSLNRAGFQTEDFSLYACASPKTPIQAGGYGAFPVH
Chain of RAF kinases (Homo sapiens, UniProt P04049) (P04049 whole entry): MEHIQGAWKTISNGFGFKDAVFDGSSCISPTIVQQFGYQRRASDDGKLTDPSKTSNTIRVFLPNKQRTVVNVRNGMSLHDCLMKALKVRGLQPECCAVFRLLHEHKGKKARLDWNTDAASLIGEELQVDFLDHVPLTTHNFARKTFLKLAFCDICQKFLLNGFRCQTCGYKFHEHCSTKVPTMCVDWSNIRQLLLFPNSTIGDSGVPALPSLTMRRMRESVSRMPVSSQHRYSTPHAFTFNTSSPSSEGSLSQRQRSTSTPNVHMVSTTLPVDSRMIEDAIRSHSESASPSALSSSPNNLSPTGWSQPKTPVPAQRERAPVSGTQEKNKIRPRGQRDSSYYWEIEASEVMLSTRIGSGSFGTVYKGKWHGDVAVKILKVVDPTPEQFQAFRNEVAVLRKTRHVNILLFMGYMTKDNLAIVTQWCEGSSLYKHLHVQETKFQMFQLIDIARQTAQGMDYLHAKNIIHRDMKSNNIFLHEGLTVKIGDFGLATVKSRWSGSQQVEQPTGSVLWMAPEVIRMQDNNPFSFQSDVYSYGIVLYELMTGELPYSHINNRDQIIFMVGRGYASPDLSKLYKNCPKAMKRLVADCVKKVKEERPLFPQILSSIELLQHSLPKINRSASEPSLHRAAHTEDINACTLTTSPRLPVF
Chain of RAF kinases (Homo sapiens, UniProt P15056) (P15056 whole entry): as the sequence (P15056 whole entry V600E) above, with E600V counted along it

In the case of `COc1cc2ncnc(Oc3cccc(NC(=O)Nc4cc(C(C)(C)C)nn4-c4cc[nH]c(=O)c4)c3)c2cc1OC` [Ex 313, 1-(3-tert-butyl-1-(2-oxo-1,2-dihydropyridin-4-yl)-1H-pyrazol-5-yl)-3-(3-(6,7-dimethoxyquinazolin-4-yloxy)phenyl)urea], the Kd [1] is reported as 250 to 500 nM, the Kd [2] is reported as 250 to 500 nM and the EC50 [3] is reported as 500 to 1000 nM. The Kd [4] was less than 250 nM, the IC50 [5] was 250 to 500 nM and the S35 [6, 8] was “D (D > 0.40)”.

`COc1cc2ncnc(Oc3cccc(NC(=O)Nc4cc(C(C)(C)C)nn4C(C)C)c3)c2cc1OC` [Ex 334, 1-(3-tert-butyl-1-isopropyl-1H-pyrazol-5-yl)-3-(3-(6,7-dimethoxyquinazolin-4-yloxy)phenyl)urea] gave a Kd [1] of 250 to 500 nM, a Kd [2] of 250 to 500 nM and an EC50 [3] of 500 to 1000 nM. The Kd [4] was less than 250 nM, the IC50 [5] was 500 to 1000 nM and the S35 [6, 8] was “C (0.20 < C ≦ 0.40)”.

Compound `COc1cc2ncnc(Sc3cccc(NC(=O)Nc4cc(C(C)(F)F)nn4-c4ccccc4)c3)c2cc1OC` [Ex 319, 1-(3-(1,1-difluoroethyl)-1-phenyl-1H-pyrazol-5-yl)-3-(3-(6,7-dimethoxyquinazolin-4-ylthio)phenyl)urea] has a Kd [1] of 250 to 500 nM, a Kd [2] of 500 to 1000 nM and an EC50 [3] of less than 250 nM. The Kd [4] was less than 250 nM, the IC50 [5] was less than 250 nM and the S35 [6, 8] was “C (0.20 < C ≦ 0.40)”.

For `COc1cc2ncnc(Oc3cccc(NC(=O)Nc4cc(C(C)(C)C(F)(F)F)nn4-c4ccccc4)c3)c2cc1OC` [Ex 306, 1-(3-(6,7-dimethoxyquinazolin-4-yloxy)phenyl)-3-(1-phenyl-3-(1,1,1-trifluoro-2-methylpropan-2-yl)-1H-pyrazol-5-yl)urea], the Kd [1] was greater than 1000 nM, the Kd [2] was greater than 1000 nM and the Kd [7] was 250 to 500 nM. For the same compound, the IC50 [5] was less than 250 nM and the S35 [6, 8] was “D (D > 0.40)”.

`COc1cc2ncnc(Oc3cccc(NC(=O)Nc4cc(C5(C(F)(F)F)CC5)nn4-c4ccc(C)cc4)c3)c2cc1OC` [Ex 346, 1-(3-(6,7-dimethoxyquinazolin-4-yloxy)phenyl)-3-(1-p-tolyl-3-(1-(trifluoromethyl)cyclopropyl)-1H-pyrazol-5-yl)urea] was tested, and the Kd [1] was greater than 1000 nM, the Kd [2] was greater than 1000 nM and the Kd [7] was less than 250 nM. For the same compound, the IC50 [5] was less than 250 nM and the S35 [6, 8] was “D (D > 0.40)”.

`COc1cc2ncnc(Oc3cccc(NC(=O)Nc4cc(C(C)(C)CO)no4)c3)c2cc1OC` [Ex 255, 1-(3-(6,7-dimethoxyquinazolin-4-yloxy)phenyl)-3-(3-(1-hydroxy-2-methylpropan-2-yl)isoxazol-5-yl)urea] gave a Kd [1] of 250 to 500 nM, a Kd [2] of 250 to 500 nM and a Kd [7] of less than 250 nM. For the same compound, the EC50 [3] was greater than 1000 nM, the IC50 [5] was greater than 1000 nM and the S35 [6, 8] was “C (0.20 < C ≦ 0.40)”.

`COc1cc2ncnc(Oc3cccc(NC(=O)Nc4cc(C(C)C)nn4-c4cncc(F)c4)c3)c2cc1OC` [Ex 314, 1-(3-(6,7-dimethoxyquinazolin-4-yloxy)phenyl)-3-(1-(5-fluoropyridin-3-yl)-3-isopropyl-1H-pyrazol-5-yl)urea] was tested, and the Kd [1] was 250 to 500 nM, the Kd [2] was 500 to 1000 nM and the EC50 [3] was less than 250 nM. The Kd [4] was less than 250 nM, the IC50 [5] was 250 to 500 nM and the S35 [6, 8] was “D (D > 0.40)”.

`COc1cc2ncnc(Oc3cccc(NC(=O)Nc4cc(C(C)(C)C)nn4-c4cccnc4C)c3)c2cc1OC` [Ex 305, 1-(3-tert-butyl-1-(2-methylpyridin-3-yl)-1H-pyrazol-5-yl)-3-(3-(6,7-dimethoxyquinazolin-4-yloxy)phenyl)urea] gave a Kd [1] of 250 to 500 nM, a Kd [2] of 500 to 1000 nM and an EC50 [3] of less than 250 nM. For the same compound, the Kd [4] was less than 250 nM, the IC50 [5] was less than 250 nM and the S35 [6, 8] was “D (D > 0.40)”.

`COc1cc2ncnc(Sc3cccc(NC(=O)Nc4cc(C(C)(C)C)nn4C4CCCCC4)c3)c2cc1OC` [Ex 331, 1-(3-tert-butyl-1-cyclohexyl-1H-pyrazol-5-yl)-3-(3-(6,7-dimethoxyquinazolin-4-ylthio)phenyl)urea] was tested, and the Kd [1] was 500 to 1000 nM, the Kd [2] was 500 to 1000 nM and the Kd [7] was 250 to 500 nM. For the same compound, the EC50 [3] was greater than 1000 nM, the IC50 [5] was less than 250 nM and the S35 [6, 8] was “B (0.10 < B ≦ 0.20)”.

In the case of `COc1cc2ncnc(Sc3cccc(NC(=O)Nc4cc(C(C)(C)C)nn4-c4ccc(C#N)cc4)c3)c2cc1OC` [Ex 329, 1-(3-tert-butyl-1-(4-cyanophenyl)-1H-pyrazol-5-yl)-3-(3-(6,7-dimethoxyquinazolin-4-ylthio)phenyl)urea], the Kd [1] is reported as 500 to 1000 nM, the Kd [2] is reported as 250 to 500 nM and the Kd [7] is reported as 250 to 500 nM. The IC50 [5] was less than 250 nM and the S35 [6, 8] was “D (D > 0.40)”.

`COc1cc2ncnc(Sc3cccc(NC(=O)Nc4cc(C(F)(F)F)nn4-c4cccc(C)c4)c3)c2cc1OC` [Ex 339, 1-(3-(6,7-dimethoxyquinazolin-4-ylthio)phenyl)-3-(1-m-tolyl-3-(trifluoromethyl)-1H-pyrazol-5-yl)urea] was tested, and the Kd [1] was 500 to 1000 nM, the Kd [2] was greater than 1000 nM and the Kd [7] was 250 to 500 nM. For the same compound, the IC50 [5] was less than 250 nM and the S35 [6, 8] was “C (0.20 < C ≦ 0.40)”.

With `COc1cc2ncnc(Oc3cccc(NC(=O)Nc4cc(C5CCC5)nn4-c4ccccc4)c3)c2cc1OC` [Ex 355, 1-(3-cyclobutyl-1-phenyl-1H-pyrazol-5-yl)-3-(3-(6,7-dimethoxyquinazolin-4-yloxy)phenyl)urea] the Kd [1] was 500 to 1000 nM, the Kd [2] was 500 to 1000 nM and the EC50 [3] was less than 250 nM. The Kd [4] was less than 250 nM, the IC50 [5] was less than 250 nM and the S35 [6, 8] was “C (0.20 < C ≦ 0.40)”.

For `COc1cc2ncnc(Sc3cccc(NC(=O)Nc4cc(C(C)(C)C)nn4-c4cccnc4)c3)c2cc1OC` [Ex 323, 1-(3-tert-butyl-1-(pyridin-3-yl)-1H-pyrazol-5-yl)-3-(3-(6,7-dimethoxyquinazolin-4-ylthio)phenyl)urea], the Kd [1] was 500 to 1000 nM, the Kd [2] was 500 to 1000 nM and the EC50 [3] was 250 to 500 nM. The Kd [4] was less than 250 nM, the IC50 [5] was less than 250 nM and the S35 [6, 8] was “D (D > 0.40)”.

With `COc1cc2ncnc(Oc3cccc(NC(=O)Nc4cc(C(C)(F)F)nn4-c4ccccc4)c3)c2cc1OC` [Ex 318, 1-(3-(1,1-difluoroethyl)-1-phenyl-1H-pyrazol-5-yl)-3-(3-(6,7-dimethoxyquinazolin-4-yloxy)phenyl)urea] the Kd [1] was 250 to 500 nM, the Kd [2] was 250 to 500 nM and the EC50 [3] was less than 250 nM. For the same compound, the Kd [4] was less than 250 nM, the IC50 [5] was less than 250 nM and the S35 [6, 8] was “C (0.20 < C ≦ 0.40)”.

With `COc1cc2ncnc(Sc3cccc(NC(=O)Nc4cc(C(C)C)nn4-c4ccccc4)c3)c2cc1OC` [Ex 325, 1-(3-(6,7-dimethoxyquinazolin-4-ylthio)phenyl)-3-(3-isopropyl-1-phenyl-1H-pyrazol-5-yl)urea] the Kd [1] was 250 to 500 nM, the Kd [2] was 250 to 500 nM and the EC50 [3] was less than 250 nM. The Kd [4] was less than 250 nM, the IC50 [5] was less than 250 nM and the S35 [6, 8] was “C (0.20 < C ≦ 0.40)”.

`COc1cc2c(Sc3cccc(NC(=O)Nc4cc(C(C)(C)F)no4)c3)ncnc2cc1OCCN1CCOCC1` [Ex 248, 1-(3-(2-fluoropropan-2-yl)isoxazol-5-yl)-3-(3-(6-methoxy-7-(2-morpholinoethoxy)quinazolin-4-ylthio)phenyl)urea] showed a Kd [1] of 250 to 500 nM, a Kd [2] of 250 to 500 nM and an EC50 [3] greater than 1000 nM. The Kd [4] was less than 250 nM, the IC50 [5] was 250 to 500 nM and the S35 ([6]; asterisk: panel of 321 distinct kinases) was “C* (0.20 < C ≦ 0.40)”.

For `COc1cc2ncnc(Oc3cccc(NC(=O)Nc4cc(C(C)C)nn4-c4ccccc4)c3)c2cc1OC` [Ex 324, 1-(3-(6,7-dimethoxyquinazolin-4-yloxy)phenyl)-3-(3-isopropyl-1-phenyl-1H-pyrazol-5-yl)urea], the Kd [1] was 250 to 500 nM, the Kd [2] was 250 to 500 nM and the EC50 [3] was less than 250 nM. For the same compound, the Kd [4] was less than 250 nM, the IC50 [5] was less than 250 nM and the S35 [6, 8] was “D (D > 0.40)”.

With `COc1cc2ncnc(Sc3cccc(NC(=O)Nc4cc(C(C)(C)C)nn4C(C)C)c3)c2cc1OC` [Ex 335, 1-(3-tert-butyl-1-isopropyl-1H-pyrazol-5-yl)-3-(3-(6,7-dimethoxyquinazolin-4-ylthio)phenyl)urea] the Kd [1] was 250 to 500 nM, the Kd [2] was 250 to 500 nM and the EC50 [3] was greater than 1000 nM. The Kd [4] was less than 250 nM, the IC50 [5] was 250 to 500 nM and the S35 [6, 8] was “C (0.20 < C ≦ 0.40)”.

Work on `COc1cc2ncnc(Oc3cccc(NC(=O)Nc4cc(C(C)(C)C)nn4CC(C)C)c3)c2cc1OC` [Ex 332, 1-(3-tert-butyl-1-isobutyl-1H-pyrazol-5-yl)-3-(3-(6,7-dimethoxyquinazolin-4-yloxy)phenyl)urea] yielded a Kd [1] of 250 to 500 nM, a Kd [2] of 250 to 500 nM and an EC50 [3] greater than 1000 nM. The Kd [4] was less than 250 nM, the IC50 [5] was 500 to 1000 nM and the S35 [6, 8] was “C (0.20 < C ≦ 0.40)”.

Compound `COc1cc2ncnc(Oc3cccc(NC(=O)Nc4cc(C(F)(F)F)nn4-c4cccc(C)c4)c3)c2cc1OC` [Ex 338, 1-(3-(6,7-dimethoxyquinazolin-4-yloxy)phenyl)-3-(1-m-tolyl-3-(trifluoromethyl)-1H-pyrazol-5-yl)urea] has a Kd [1] of 250 to 500 nM, a Kd [2] of 500 to 1000 nM and an EC50 [3] of less than 250 nM. For the same compound, the Kd [4] was less than 250 nM, the IC50 [5] was less than 250 nM and the S35 [6, 8] was “C (0.20 < C ≦ 0.40)”.

`COc1cc2ncnc(Oc3cccc(NC(=O)Nc4cc(C(C)(C)C#N)nn4-c4ccccc4)c3)c2cc1OC` [Ex 308, 1-(3-(2-cyanopropan-2-yl)-1-phenyl-1H-pyrazol-5-yl)-3-(3-(6,7-dimethoxyquinazolin-4-yloxy)phenyl)urea] was tested, and the Kd [1] was 250 to 500 nM, the Kd [2] was 250 to 500 nM and the EC50 [3] was 250 to 500 nM. For the same compound, the Kd [4] was less than 250 nM, the IC50 [5] was less than 250 nM and the S35 [6, 8] was “D (D > 0.40)”.

Compound `COc1cc2ncnc(Oc3cccc(NC(=O)Nc4cc(C(C)(C)C)nn4-c4ccc(C)nc4)c3)c2cc1OC` [Ex 312, 1-(3-tert-butyl-1-(6-methylpyridin-3-yl)-1H-pyrazol-5-yl)-3-(3-(6,7-dimethoxyquinazolin-4-yloxy)phenyl)urea] has a Kd [1] of 250 to 500 nM, a Kd [2] of 500 to 1000 nM and an EC50 [3] of less than 250 nM. For the same compound, the Kd [4] was less than 250 nM, the IC50 [5] was less than 250 nM and the S35 [6, 8] was “D (D > 0.40)”.

Source: patent publication US8618289B2 (Ambit Biosciences Corporation, priority 2008, dated 2013)
